The conditions of series [1]: mouse, in vivo; cited from earlier work.
Series [2] can be described thus: Comparison of ^177Lu-IMP-241 and ^111In-IMP-241 pretargeting using hMN-14 × m679 F(ab′)2 bsMAb (24 h bsMAb clearance). It is filed as in vivo, nude mice. As to conditions: female, NCr nude, mouse, iv, total radioactivity, read-out: Percent Injected Dose Per Gram; for tissue uptake at 3 h: 3 hour after peptide; for tissue uptake at 24 h: 24 hour after peptide. As for the experimental part:
(§1) Female NCr nude mice Charles River Laboratories, Inc., Fredrick Md. or Taconic, Germantown, N.Y.) approximately 6 weeks of age were implanted subcutaneously with 0.2 ml of this suspension. Two to three weeks after implantation of tumors, animals were injected with the radiolabeled peptide alone, or for pretargeting, with the bsMAb followed 1 to 2 days later with the radiolabeled peptide. […] At the designated times after the peptide injection, animals were anesthetized, bled by cardiac puncture, and then euthanized prior to necropsy. Tissues were removed, weighed and counted by gamma scintillation using appropriate windows for each radionuclide along with standards prepared from the injected materials. When dual isotope counting was used, appropriate backscatter correction was made. GI tissues (stomach, small intestine and large intestine were weighed and counted with their contents. Data are expressed as the percent injected dose per gram tissue (% ID/g) and the ratio of the percentages in the tumor to the normal tissues (T/NT). All values presented in the tables and figures represent the mean and standard deviation of the calculated values with the number of animals used for each study provided therein.

The next series is described as follows: in vivo. Further details: species or system nude mice. The note with it: female, NCr nude, mouse, total radioactivity, % ID/g. The procedure: as §1, with “GW-39, a CEA-producing human colon cancer cell line (See, Goldenberg, D. M. and Hansen, H. […] Female” for “Female”, “suspension.” for “suspension. Two to three weeks after implantation of tumors, animals were injected with the radiolabeled peptide alone, or for pretargeting, with the bsMAb followed 1 to 2 days later with the radiolabeled peptide.”

The next series deals with GW-39. Briefly: in vivo. Also on record: species or system nude mice. As to conditions: mouse. The procedure:
as §1, with “GW-39, a CEA-producing human colon cancer cell line (See, Goldenberg, D. M. and Hansen, H. […] Female” for “Female”, “suspension.” for “suspension. Two to three weeks after implantation of tumors, animals were injected with the radiolabeled peptide alone, or for pretargeting, with the bsMAb followed 1 to 2 days later with the radiolabeled peptide.”

The test system of another series is 679 IgG. Briefly: Binding of labeled peptide to excess 679 IgG by size exclusion HPLC. The note with it: ^90Y labeled peptide. Further details: species or system murine. As for the experimental part:
The ^90Y (˜400 μCi/kit) was diluted to 1 mL in deionized water and added to the lyophilized kits. The kits were heated in a boiling water bath for 15 min, the vials were cooled to room temperature and the labeled peptides were evaluated by reverse phase HPLC (HPLC conditions: Waters Nova-Pak C-18, 8×100 mm RCM column eluted at 3 mL/min with a linear gradient from 100% (0.1% TFA in H2O) to 100% (90% CH3CN, 0.1% TFA, 10% H2O)).
The ^111In (˜300 μCi/kit) was diluted to 0.5 mL in deionized water and added to the lyophilized kits. The kits were heated in a boiling water bath for 15 min, the vials were cooled and 0.5 mL of 2.56×10^−5 M In in 0.5 M acetate buffer was added and the kits were again heated in the boiling water bath for 15 min. The labeled peptide vials were cooled to room temperature and evaluated by reverse phase HPLC (HPLC conditions: Waters Nova-Pak C-18, 8×100 mm RCM column eluted at 3 mL/min with a linear gradient from 100% (0.1% TFA in H2O) to 100% (90% CH3CN, 0.1% TFA, 10% H2O)).
The mixture was centrifuged and DTPA was added to a final concentration of 3 mM. After 15 min at room temperature, the final volume was raised to 1.0 mL with 0.1 M sodium acetate, pH 6.5. The amount of unbound isotope was determined by reverse phase HPLC and ITLC developed in saturated sodium chloride solution. […]

The subject of another series is GW-39 tumor. The series is described as follows: Tumor/nontumor ratios for directly labeled ^99mTc-hMN-14 Fab′. It counts as in vivo, nude mice. As to conditions: 3 h after injection. The procedure: (§2) Humanized MN-14 (hMN-14) Fab′-SH was prepared in a similar manner as described previously. ^99mTc-pertechnetate (30 mCi) was added directly to the lyophilized hMN-14-Fab′-SH (1.0 mg) and injected in animals within 30 minutes. This product had 3.0% unbound ^99mTc by ITLC and an immunoreactive fraction of 92%.
as §1

Series [3] is described as follows: Immunoreactive fraction of ^99mTc-hMN-14 Fab′. It counts as binding. As for the experimental part: as §2
In series [4] the target is carcinoembryonic antigen (CEA) (UniProt P06731). Briefly: analytical size exclusion HPLC, radioiodinated bsAb with 10-20x molar excess of CEA.
Series [5] deals with Ac-Lys(DTPA)-Tyr-Lys(DTPA)-Lys(Tscg-Cys)-NH2 (IMP 192). The series is described as follows: in vivo, calculated from biodistribution in GW-39 tumor-bearing mice, 30 min after 99m-Tc-IMP-192, assuming one peptide per bsAb.
The target is the same in series [6]. Briefly: in vivo, calculated from biodistribution in GW-39 tumor-bearing mice, 24 h after 99m-Tc-IMP-192, assuming one peptide per bsAb.
Series [7] shares this target. The series is described as follows: in vivo, calculated from biodistribution in GW-39 tumor-bearing mice, 3 h after 99m-Tc-IMP-192, assuming one peptide per bsAb.
Series [8] has the same target. Briefly: in vivo, calculated from biodistribution in GW-39 tumor-bearing mice, 1 h after 99m-Tc-IMP-192, assuming one peptide per bsAb.
Another series deals with hMN-14 Fab′×734 Fab′. The series is described as follows: HPLC complexation of In-111 carboxylesterase-DTPA with bi-specific antibody. It counts as binding. As to conditions: 20-fold molar excess of hMN-14 Fab′×734 Fab′. The procedure: (§3) After 1 hour of incubation, the mixture is pre-purified on two 5-mL spin-columns (Sephadex G50/80 in 0.1 M sodium phosphate pH 7.3) to remove excess reagent and DMSO. The eluate is purified on a TSK 3000G Supelco column using 0.2 M sodium phosphate pH 6.8 at 4 ml/min. The fraction containing conjugate is concentrated on a Centricon-10™ concentrator, and buffer-exchanged with 0.1 M sodium acetate pH 6.5. […] Incorporation by HPLC and ITLC analyses is 97.7%.

The nature of series [9]: Enzymatic analysis of carboxylesterase-DTPA conjugate. It is filed as biochemical, rabbit. As for the experimental part: as §3

Like-named read-outs stand apart in the source and are kept apart here. *1 amine or outer side, *2 acyl side, *3 side chain or, on linkers, in order; H or OH if unused. Where a SMILES comes first, the peptide text is derived from it. Side-chain parts run from the residue outwards. [ ]: non-standard residue; d: D form. The star is where a group is joined. HSG = histamine succinyl glycyl group, O=C(CCC(=O)NCC(=O)*)NCCc1c[nH]cn1; DOTA = O=C(O)CN1CCN(CC(=O)O)CCN(CC(=O)*)CCN(CC(=O)O)CC1; NH(2-(imidazol-4-yl)ethyl) = c1ncc(CCN*)[nH]1; Suc = O=C(CCC(=O)[*:2])[*:1]

carcinoembryonic antigen (CEA), sequence (P06731 35-685 limits assumed): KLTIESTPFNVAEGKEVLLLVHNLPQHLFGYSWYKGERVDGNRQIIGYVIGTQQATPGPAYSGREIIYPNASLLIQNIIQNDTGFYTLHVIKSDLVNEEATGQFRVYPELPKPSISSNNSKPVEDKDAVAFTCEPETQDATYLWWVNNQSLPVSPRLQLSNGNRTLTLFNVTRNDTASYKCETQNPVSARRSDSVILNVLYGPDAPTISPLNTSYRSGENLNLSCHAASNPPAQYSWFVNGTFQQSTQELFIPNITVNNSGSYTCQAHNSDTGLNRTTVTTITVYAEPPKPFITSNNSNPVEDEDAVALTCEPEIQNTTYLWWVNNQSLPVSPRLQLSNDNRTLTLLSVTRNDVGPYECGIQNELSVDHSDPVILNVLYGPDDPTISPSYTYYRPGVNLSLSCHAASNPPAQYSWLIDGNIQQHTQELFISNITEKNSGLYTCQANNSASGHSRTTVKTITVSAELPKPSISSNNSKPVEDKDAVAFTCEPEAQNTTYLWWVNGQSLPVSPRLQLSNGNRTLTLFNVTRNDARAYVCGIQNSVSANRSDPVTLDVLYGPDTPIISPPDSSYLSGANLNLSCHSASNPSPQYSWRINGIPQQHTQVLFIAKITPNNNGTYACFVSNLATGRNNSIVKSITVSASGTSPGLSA

With `COc1cccc2c1C(=O)c1c(O)c3c(c(O)c1C2=O)C[C@@](O)(C(=O)CO)C[C@@H]3O[C@H]1C[C@H](N)[C@H](O)[C@H](C)O1` [Doxorubicin], the hepatobiliary clearance in [1] is about 95%.

For the molecule `NC(=O)[C@H](CCCCNC(=O)CNC(=O)CCC(=O)NCCc1cnc[nH]1)NC(=O)[C@@H](Cc1ccc(O)cc1)NC(=O)[C@H](CCCCNC(=O)CNC(=O)CCC(=O)NCCc1cnc[nH]1)NC(=O)[C@H](Cc1ccccc1)NC(=O)CN1CCN(CC(=O)O)CCN(CC(=O)O)CCN(CC(=O)O)CC1` [^177Lu-IMP-241, metal not drawn] ({DOTA}-FK([Gly-Suc-NH(2-(imidazol-4-yl)ethyl)])[dY]K([Gly-Suc-NH(2-(imidazol-4-yl)ethyl)])-NH2), the tissue uptake at 3 h was found to be 1.48 ± 0.19 %ID/g in [2] (blood, Blood); 3.61 ± 0.43 %ID/g in [2] (kidney, Kidney); 0.46 ± 0.08 %ID/g in series [2] (liver, Liver); 0.64 ± 0.12 %ID/g in [2] (lungs, Lungs); 0.36 ± 0.04 %ID/g in [2] (spleen, Spleen); 9.71 ± 2.49 %ID/g in series [2] (tumor, Tumor). The tissue uptake at 24 h is 0.36 ± 0.05 %ID/g in series [2] (blood, Blood); 0.18 ± 0.03 %ID/g in [2] (kidney, Kidney); 0.17 ± 0.04 %ID/g in [2] (liver, Liver); 0.17 ± 0.02 %ID/g in series [2] (lungs, Lungs); 0.29 ± 0.07 %ID/g in series [2] (spleen, Spleen); 2.59 ± 0.3 %ID/g in [2] (tumor, Tumor). Further, the tissue uptake at 48 h in “in vivo” was determined as 0.94 ± 0.2 %ID/g. The “decrease in kidneys compared to the level seen at 24 h” value with GW-39 was about 45%.

In the case of “^90Y-IMP-241: IMP 241 divalent HSG-DOTA peptide radiolabeled with ^90Y ({DOTA}-FK(HSG)YK(HSG)-NH2; not fully specified (residue 3); also: DOTA loaded with 90Y)”, in the series on 679 IgG, the “binding to excess 679 IgG by size exclusion HPLC” value is “binding to the antibody”.

For the molecule “^99mTc-hMN-14 Fab′: humanized MN-14 anti-CEA Fab′ directly radiolabeled with ^99mTc”, the Tumor/nontumor ratio was determined as 1.0 ± 0.01 in the series with GW-39 tumor (Blood); 0.02 ± 0.001 with GW-39 tumor (Kidney); 0.2 ± 0.02 with GW-39 tumor (Liver); 0.7 ± 0.1 in the series with GW-39 tumor (Lungs); 0.9 ± 0.4 in the series with GW-39 tumor (Spleen). Also, the immunoreactive fraction in series [3] is recorded as 92%.

In the case of “hMN-14 × 734 (Fab × Fab) bi-specific antibody (bispecific antibody)”, the percent bound in series [4] came out at 90%. Moreover, the % saturation of the available DTPA binding sites on the tumor bound bsAb in series [5] was 25.4%; in series [6] it was 28%; in series [7], 25%; in series [8], 25.8%.

B1: Carboxylesterase-DTPA (conjugate)
chain: HPSAPPVVDTVHGKVLGKFVSLEGFAQPVAVFLGVPFAKPPLGSLRFAPPQPAESWSHVKNTTSYPPMCSQDAVSGHMLSELFTNRKENIPLKFSEDCLYLNIYTPADLTKRGRLPVMVWIHGGGLMVGGASTYDGLALSAHENVVVVTIQYRLGIWGFFSTGDEHSRGNWGHLDQVAALRWVQDNIANFGGDPGSVTIFGESAGGQSVSILLLSPLTKNLFHRAISESGVALLSSLFRKNTKSLAEKIAIEAGCKTTTSAVMVHCLRQKTEEELMEVTLKMKFMALDLVGDPKENTAFLTTVIDGVLLPKAPAEILAEKKYNMLPYMVGINQQEFGWIIPMQMLGYPLSEGKLDQKTATELLWKSYPIVNVSKELTPVATEKYLGGTDDPVKKKDLFLDMLADLLFGVPSVNVARHHRDAGAPTYMYEYRYRPSFSSDMRPKTVIGDHGDEIFSVLGAPFLKEGATEEEIKLSKMVMKYWANFARNGNPNGEGLPQWPAYDYKEGYLQIGATTQAAQKLKDKEVAFWTELWAKEAARPRETEHIEL
As to B1, the “complexation with bi-specific antibody (HPLC)” value with hMN-14 Fab′×734 Fab′ was “completely complexed”. The molecule further came in with an enzymatic activity in [9] of 115 enzyme units/mg protein.

(Values after patent US20060140858A1, “Drug pre-targeting by means of bi-specific antibodies and hapten constructs comprising a carrier peptide and the active agent(s)” (Immunomedics, Inc., priority 2002, published 2006).)
